This note sets out measurements from PubChem BioAssay (NCI).

Among the test systems are OVCAR-4 ovarian; UACC-62 melanoma; NCI-H522 lung; SF-295 CNS; COLO 205 colon; U251 CNS; CAKI-1 renal; HCC-2998 colon.
Experiment in all cases: NCI-60 cell line screen, 48 h

Each structure is given as a SMILES string. Where “and” joins values, the source holds several entries; their conditions need not be identical. Equal values may be shown once.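 96-well plates; 48 h exposure; 5 concentrations. Endpoints by linear interpolation between flanking doses. Not reached: highest tested concentration assigned. GI50: concentration for 50% inhibition of growth. At the TGI there is no net growth.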 Some results are limits rather than exact numbers.

With `COc1ccc(/C=C2\CCCC(C(NO)c3ccc(OC)cc3)C2=NO)cc1` (centres undefined), the TGI with OVCAR-4 ovarian is above 100 µM; in the experiment on UACC-62 melanoma, above 100 µM; with NCI-H522 lung, 82 µM; in the experiment on SF-295 CNS, above 100 µM; in the experiment with COLO 205 colon, above 100 µM; in the experiment on U251 CNS, above 100 µM. Further, the TGI with CAKI-1 renal and with HCC-2998 colon was above 100 µM throughout.

`CCCCN(CCCC)c1c([N+](=O)[O-])c(=O)nc2ccccn12`: the TGI was above 100 µM in the experiment on UACC-62 melanoma, 36.4 µM in the experiment on NCI-H522 lung, above 100 µM in the experiment on COLO 205 colon and above 100 µM in the experiment on U251 CNS.

Take `Cc1cccc(C)c1NC(=O)C1C(=O)N(c2c(C)cccc2C)C(=O)/C1=N\NC(N)=S` (centres undefined): the TGI in the experiment on OVCAR-4 ovarian, with UACC-62 melanoma, with NCI-H522 lung, in the experiment on SF-295 CNS, in the experiment with U251 CNS and in the experiment on HCC-2998 colon was above 100 µM throughout.

As to `Cc1cc(C)c(C(=O)c2no[n+]([O-])c2C(=O)c2c(C)cc(C)c(Br)c2C)c(C)c1Br`, the TGI was found to be 50 µM in the experiment on OVCAR-4 ovarian; 23.7 µM in the experiment on UACC-62 melanoma; 23.4 µM in the experiment with NCI-H522 lung; 33.3 µM in the experiment with SF-295 CNS; 31.4 µM with COLO 205 colon; 25 µM in the experiment with U251 CNS. The TGI in the experiment on CAKI-1 renal is 44.8 µM.

In the case of `CC1=C(C(=O)Nc2cccc(Cl)c2)C(c2ccccc2F)C(C(=O)Nc2cccc(Cl)c2)=C(C)N1`, the TGI is 21.3 µM with OVCAR-4 ovarian; 23.1 µM in the experiment with NCI-H522 lung; 36.8 µM in the experiment on SF-295 CNS; 26.3 µM in the experiment with COLO 205 colon; 37.7 µM with U251 CNS; 35.9 µM with CAKI-1 renal. The TGI in the experiment with HCC-2998 colon was 21 µM.

`NCCCCNc1ccc2c(=O)[nH][nH]c(=O)c2c1`: the TGI in the experiment on OVCAR-4 ovarian, in the experiment with UACC-62 melanoma, with NCI-H522 lung, in the experiment with SF-295 CNS, in the experiment with COLO 205 colon and with U251 CNS was above 100 µM in each case. In addition, the TGI in the experiment on CAKI-1 renal and in the experiment on HCC-2998 colon was above 100 µM throughout.

On to `CC[C@]1(O)C(=O)OCc2c1cc1n(c2=O)Cc2cc3c(N)cccc3nc2-1`, for which the TGI in the experiment on OVCAR-4 ovarian, in the experiment with UACC-62 melanoma, in the experiment with NCI-H522 lung, in the experiment on SF-295 CNS, in the experiment with COLO 205 colon and with U251 CNS was above 100 µM in each case. For the same compound, the TGI in the experiment on CAKI-1 renal and in the experiment on HCC-2998 colon was above 100 µM in each case.

Regarding `OC1(c2ccccc2)OC(C#Cc2ccccc2)(c2ccccc2)c2ccccc21` (centres undefined), the TGI with OVCAR-4 ovarian amounted to 5.85 µM; with UACC-62 melanoma, 3.84 µM; with NCI-H522 lung, 20.3 µM; with SF-295 CNS, 18 µM; in the experiment with COLO 205 colon it was 5.38 µM; in the experiment with U251 CNS, 15.1 µM. The compound also gave a TGI with CAKI-1 renal of 13.9 µM.

For the compound `CN1CC[C@]2(C)c3ccc(O)cc3CC3CCCC1C32C` (some centres undefined), the TGI in the experiment with UACC-62 melanoma, with NCI-H522 lung, with SF-295 CNS, in the experiment with COLO 205 colon, in the experiment on U251 CNS and in the experiment with CAKI-1 renal was above 100 µM each time. This compound gave a TGI with HCC-2998 colon above 100 µM.

As for `C/C=C/C=C/C=C/C=C/C(=O)O`, the TGI in the experiment on OVCAR-4 ovarian, with UACC-62 melanoma, in the experiment with NCI-H522 lung, in the experiment with SF-295 CNS, with COLO 205 colon and with U251 CNS was above 100 µM in each case. The TGI in the experiment on CAKI-1 renal and in the experiment with HCC-2998 colon was above 100 µM each time.

In the case of `Cc1ccc(-c2cc(-c3ccccc3)c(C#N)c(=O)n2C2OC(CO)C(O)C(O)C2O)cc1` (centres undefined), the TGI in the experiment on OVCAR-4 ovarian, in the experiment on UACC-62 melanoma, in the experiment with NCI-H522 lung, with SF-295 CNS, in the experiment with COLO 205 colon and in the experiment on U251 CNS was above 100 µM throughout. In the experiment on HCC-2998 colon, this compound yielded a TGI above 100 µM.

With `O=[N+]([O-])c1cnn(C2=CNc3ccccc3N=C2)c1`, the TGI in the experiment with UACC-62 melanoma, in the experiment on SF-295 CNS, in the experiment on COLO 205 colon, with U251 CNS and in the experiment on HCC-2998 colon was above 100 µM throughout.

For `CCC1=NC(CO)[C@H](c2ccccc2)O1` (some centres undefined), the TGI with OVCAR-4 ovarian, in the experiment on UACC-62 melanoma, in the experiment with SF-295 CNS, in the experiment on COLO 205 colon, in the experiment with U251 CNS and with CAKI-1 renal was above 100 µM each time.

For the compound `N.N.N.N.O=C([O-])C(Cl)Cl.O=C([O-])C(Cl)Cl.[Co+3].[O-][Cl+3]([O-])([O-])[O-]`, the GI50 in the experiment on OVCAR-4 ovarian, in the experiment with UACC-62 melanoma, in the experiment with NCI-H522 lung, in the experiment with SF-295 CNS, in the experiment with COLO 205 colon and in the experiment on U251 CNS was above 100 µM in each case. The GI50 with HCC-2998 colon was above 100 µM. Also, the TGI in the experiment with OVCAR-4 ovarian, in the experiment on UACC-62 melanoma, in the experiment with NCI-H522 lung, in the experiment with SF-295 CNS, in the experiment with COLO 205 colon and in the experiment on U251 CNS was above 100 µM throughout. For the same compound, the TGI with HCC-2998 colon is above 100 µM.

With `N#CCCN(CCC#N)c1ccc(C(Sc2ccccc2)C(NC(=O)c2cc([N+](=O)[O-])ccc2Cl)C(=O)Sc2ccccc2)cc1` (centres undefined), the GI50 with OVCAR-4 ovarian was 3.92 µM; in the experiment with UACC-62 melanoma, 2.58 µM; in the experiment with COLO 205 colon, 2.9 µM. The TGI was 15.7 µM in the experiment with OVCAR-4 ovarian; 6.02 µM and 10.5 µM in the experiment on UACC-62 melanoma; 5.5 µM and 1.6 µM in the experiment on NCI-H522 lung; 13.1 µM in the experiment with SF-295 CNS; 6.75 µM and 7.77 µM with COLO 205 colon; 4.15 µM and 6.01 µM with U251 CNS. In addition, the TGI with CAKI-1 renal is 5.71 µM and 6.5 µM; in the experiment on HCC-2998 colon it was 19.7 µM.

As for `COC1C2C=CC(C2)[C@H]1[N+](=O)[O-]` (some centres undefined), the TGI in the experiment on OVCAR-4 ovarian, in the experiment on UACC-62 melanoma, with NCI-H522 lung, with SF-295 CNS, in the experiment with COLO 205 colon and in the experiment with U251 CNS was above 100 µM throughout. Besides, the TGI in the experiment on CAKI-1 renal and in the experiment on HCC-2998 colon was above 100 µM throughout.

Regarding `Cc1cccc(-n2c(=S)[nH]c3c(sc(=O)n3-c3ccccc3C)c2=O)c1`, the TGI in the experiment with OVCAR-4 ovarian, with UACC-62 melanoma, with NCI-H522 lung, with SF-295 CNS, in the experiment with COLO 205 colon and in the experiment with U251 CNS was above 100 µM throughout. For the same compound, the TGI with CAKI-1 renal and in the experiment with HCC-2998 colon was above 100 µM throughout.
